The values below come from USRE47689E1, “Compounds for treating spinal muscular atrophy” (PTC Therapeutics, Inc., priority 2011, dated 2019).

Structures can show the parent of a compound that is named as a salt.

The test system of experiment [1] is SMN2 minigene (full length SMN2 minigene mRNA containing SMN2 exon 7). As to the kind of experiment: SMN2 minigene mRNA splicing RT-qPCR assay in cultured cells. Format: cell-based, human. Conditions: HEK293H cells stably transfected with SMN2-A minigene, 24 hours, 7-point concentration curve, 1.5-fold relative to vehicle-treated cells; for EC (1.5-fold): Homo sapiens, HEK293-H, read-out: EC1.5x for production of full length SMN2 mRNA. The essentials:
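Read-out: full-length (exon 7-included) SMN2 minigene mRNA by multiplex RT-qPCR with GAPDH, efficiency-corrected (1+E)^−Ct, GAPDH-normalized and divided by vehicle. Stably transfected HEK293H cells, 24 h compound exposure, duplicates per concentration. Value is EC1.5x, reported as star ranges.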
(In general: Quantitative PCR measures a nucleic acid by following its amplification.)

The test system of a further experiment is Smn protein. Put plainly: Smn protein assay in cultured cells (SMN HTRF). It counts as cell-based, human. The note with it: 48 hours; for maximum fold (Fold) increase of Smn protein: SMA patient fibroblast cells, 7-point concentration data, fold increase relative to vehicle control (SMN HTRF); for EC1.5x (concentration giving 1.5-fold Smn protein increase): SMA Type 1 patient fibroblast cells (GM03813), 7-point concentration curve, SMN HTRF, concentration producing 1.5 times Smn protein vs DMSO vehicle control, read-out: EC1.5x for Smn protein expression. The method, boiled down: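 Lysates in RIPA with protease inhibitors are incubated overnight at room temperature with HTRF anti-SMN antibodies. EC1.5x is derived from fold increase in ΔF over vehicle.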
For orientation: TR-FRET usually uses a lanthanide donor and a delayed reading to cut background.

In the case of “7-(2,5-diazabicyclo[2.2.2]oct-2-yl)-3-(pyrazolo[1,5-a]pyridin-2-yl)-2H-chromen-2-one [Compound 191]”, in experiment [1], the “EC1.5x for production of full length SMN2 mRNA” value was “*** (between >0.3 μM and ≤1 μM)”. Further, the “maximum fold (Fold) increase of Smn protein” value (“maximum fold (Fold) increase” for short) in the experiment with Smn protein is “** (fold increase between >1.2 and ≤1.35)”.

Regarding `C[C@@H]1CN(c2ccc3cc(-c4cn5ccccc5n4)c(=O)oc3c2)C[C@H](C)N1C` [Compound 140, 3-(imidazo[1,2-a]pyridin-2-yl)-7-[(3R,5S)-3,4,5-trimethylpiperazin-1-yl]-2H-chromen-2-one], the EC (1.5-fold) in experiment [1] is 0.3 to 1 µM. For the same compound, in the experiment with Smn protein, the “maximum fold (Fold) increase” value was “** (fold increase between >1.2 and ≤1.35)”.

With `Cc1cn2cc(-c3cc4ccc(N5CCCN(C)CC5)cc4oc3=O)cc2c(C)n1` [Compound 681, 3-(1,3-dimethylpyrrolo[1,2-a]pyrazin-7-yl)-7-(4-methyl-1,4-diazepan-1-yl)-2H-chromen-2-one], in experiment [1], the EC (1.5-fold) is < 0.1 µM. For the same compound, in the experiment on Smn protein, the EC1.5x (concentration giving 1.5-fold Smn protein increase) is < 300 nM; the “maximum fold (Fold) increase” value is “**** (fold increase between >1.5 and ≤1.65)”.

Take `CC[C@H]1CN(c2ccc3cc(-c4cn5cc(C)nc(C)c5n4)c(=O)oc3c2)CCN1` [Compound 772, 3-(6,8-dimethylimidazo[1,2-a]pyrazin-2-yl)-7-[(3S)-3-ethylpiperazin-1-yl]-2H-chromen-2-one]: the EC (1.5-fold) in experiment [1] is < 0.1 µM. For the same compound, in the experiment with Smn protein, the EC1.5x (concentration giving 1.5-fold Smn protein increase) was < 300 nM and the “maximum fold (Fold) increase” value is on record as “***** (fold increase >1.65)”.

As to `Cc1cccc2oc(-c3cc4ccc(N5CCNCC5)cc4oc3=O)nc12.Cl` [Compound 22, 3-(4-methyl-1,3-benzoxazol-2-yl)-7-(piperazin-1-yl)-2H-chromen-2-one hydrochloride], the EC (1.5-fold) in experiment [1] was 3 to 30 µM. Also, in the experiment with Smn protein, the “maximum fold (Fold) increase” value is “* (maximum fold increase of ≤1.2)”.

For `Cc1nc2ccc(-c3cc4ccc(N5CCN(C)[C@@H](C)C5)cc4oc3=O)cc2s1` [Compound 776, 7-[(3S)-3,4-dimethylpiperazin-1-yl]-3-(2-methyl-1,3-benzothiazol-6-yl)-2H-chromen-2-one acetate (2:1)], in experiment [1], the EC (1.5-fold) lay within 1 to 3 µM. Also, the “maximum fold (Fold) increase” value in the experiment with Smn protein is “** (fold increase between >1.2 and ≤1.35)”.

Consider `Cc1cn2cc(-c3cc4ccc(N5CCN[C@@H](C(C)C)C5)cc4oc3=O)nc2c(C)n1` [Compound 808, 3-(6,8-dimethylimidazo[1,2-a]pyrazin-2-yl)-7-[(3S)-3-(propan-2-yl)piperazin-1-yl]-2H-chromen-2-one], for which, in experiment [1], the EC (1.5-fold) is < 0.1 µM. Besides, in the experiment on Smn protein, the EC1.5x (concentration giving 1.5-fold Smn protein increase) is < 300 nM; the “maximum fold (Fold) increase” value was “**** (fold increase between >1.5 and ≤1.65)”.

`Cc1cn2cc(-c3cc4ccc(N5CCN(C6CC6)CC5)cc4oc3=O)cc2c(C)n1` [Compound 752, 7-(4-cyclopropylpiperazin-1-yl)-3-(1,3-dimethylpyrrolo[1,2-a]pyrazin-7-yl)-2H-chromen-2-one]: the EC (1.5-fold) in experiment [1] was < 0.1 µM. In the experiment with Smn protein, the EC1.5x (concentration giving 1.5-fold Smn protein increase) was 300 to 1000 nM; the “maximum fold (Fold) increase” value was “**** (fold increase between >1.5 and ≤1.65)”.

As for `Cc1cn2cc(-c3cc4ccc(N5CCCN(C(C)C)CC5)cc4oc3=O)cc2cn1` [Compound 753, 3-(3-methylpyrrolo[1,2-a]pyrazin-7-yl)-7-[4-(propan-2-yl)-1,4-diazepan-1-yl]-2H-chromen-2-one], the EC (1.5-fold) in experiment [1] is < 0.1 µM. In the experiment with Smn protein, the EC1.5x (concentration giving 1.5-fold Smn protein increase) was 1000 to 3000 nM; the “maximum fold (Fold) increase” value is “*** (fold increase between >1.35 and ≤1.5)”.

Regarding `CN1CCN(C(=O)c2ccc3cc(-c4nc5c(Cl)cccc5s4)c(=O)oc3c2)CC1` [Cpd 28, 3-(4-chloro-1,3-benzothiazol-2-yl)-7-[(4-methylpiperazin-1-yl)carbonyl]-2H-chromen-2-one], the EC (1.5-fold) in experiment [1] fell in the range of 3 to 30 µM. Also, the “maximum fold (Fold) increase” value in the experiment on Smn protein is listed as “* (maximum fold increase of ≤1.2)”.

In the case of `CC(C)(C)OC(=O)N[C@H]1CCN(c2ccc3cc(-c4cn5cc(Cl)ccc5n4)c(=O)oc3c2)C1` [Compound 106, tert-butyl {(3S)-1-[3-(6-chloroimidazo[1,2-a]pyridin-2-yl)-2-oxo-2H-chromen-7-yl]pyrrolidin-3-yl}carbamate], the EC (1.5-fold) in experiment [1] lay within 3 to 30 µM. Also, the “maximum fold (Fold) increase” value in the experiment with Smn protein was “* (maximum fold increase of ≤1.2)”.

Consider `COCCNCCOc1ccc2cc(-c3cn4cc(C)nc(C)c4n3)c(=O)oc2c1` [Compound 960, 3-(6,8-dimethylimidazo[1,2-a]pyrazin-2-yl)-7-{2-[(2-methoxyethyl)amino]ethoxy}-2H-chromen-2-one], for which, in experiment [1], the EC (1.5-fold) was < 0.1 µM. In the experiment with Smn protein, the EC1.5x (concentration giving 1.5-fold Smn protein increase) lay within 1000 to 3000 nM; the “maximum fold (Fold) increase” value was “*** (fold increase between >1.35 and ≤1.5)”.

For `CCN1[C@H](C)CN(c2ccc3cc(-c4cn5cc(C)ncc5n4)c(=O)oc3c2)C[C@@H]1C` [Compound 797, 7-[(3R,5S)-4-ethyl-3,5-dimethylpiperazin-1-yl]-3-(6-methylimidazo[1,2-a]pyrazin-2-yl)-2H-chromen-2-one], the EC (1.5-fold) in experiment [1] is < 0.1 µM. For the same compound, in the experiment with Smn protein, the EC1.5x (concentration giving 1.5-fold Smn protein increase) is < 300 nM; the “maximum fold (Fold) increase” value is “**** (fold increase between >1.5 and ≤1.65)”.

With `Cc1cn2cc(-c3cc4ccc(N5CCC(CNC(C)C)CC5)cc4oc3=O)cc2c(C)n1` [Compound 790, 3-(1,3-dimethylpyrrolo[1,2-a]pyrazin-7-yl)-7-{4-[(propan-2-ylamino)methyl]piperidin-1-yl}-2H-chromen-2-one], the EC (1.5-fold) in experiment [1] was 0.3 to 1 µM. The “maximum fold (Fold) increase” value with Smn protein was “** (fold increase between >1.2 and ≤1.35)”.

Turning to `COc1ccc(-c2cc3ccc(N4CCN(C)CC4)cc3oc2=O)cc1OC` [Compound 317, 3-(3,4-dimethoxyphenyl)-7-(4-methylpiperazin-1-yl)-2H-chromen-2-one], in experiment [1], the EC (1.5-fold) was 3 to 30 µM. Further, in the experiment with Smn protein, the “maximum fold (Fold) increase” value is listed as “* (maximum fold increase of ≤1.2)”.

As for `Cc1cccn2cc(-c3cc4ccc(N5C[C@H](C)NC[C@H]5C)cc4oc3=O)nc12` [Compound 166, 7-[(2R,5S)-2,5-dimethylpiperazin-1-yl]-3-(8-methylimidazo[1,2-a]pyridin-2-yl)-2H-chromen-2-one], the EC (1.5-fold) in experiment [1] lay in the range of 1 to 3 µM. Also, the “maximum fold (Fold) increase” value in the experiment with Smn protein is “** (fold increase between >1.2 and ≤1.35)”.

For the compound `O=c1oc2cc(N3CCNCC3)ccc2cc1-c1cn2ccccc2n1` [Compound 34, 3-(imidazo[1,2-a]pyridin-2-yl)-7-(piperazin-1-yl)-2H-chromen-2-one], the EC (1.5-fold) in experiment [1] is 0.3 to 1 µM. The “maximum fold (Fold) increase” value in the experiment with Smn protein is “** (fold increase between >1.2 and ≤1.35)”.

Turning to `COCCN1CCN(c2ccc3cc(-c4cc5c(C)nc(C)cc5s4)c(=O)oc3c2)CC1` [Compound 820, 3-(4,6-dimethylthieno[3,2-c]pyridin-2-yl)-7-[4-(2-methoxyethyl)piperazin-1-yl]-2H-chromen-2-one], in experiment [1], the EC (1.5-fold) lay within 0.3 to 1 µM. In the experiment on Smn protein, the “maximum fold (Fold) increase” value was “** (fold increase between >1.2 and ≤1.35)”.

As to `Cc1cc2oc(-c3cc4ccc(N5CCNCC5)cc4oc3=O)cc2c(C)n1` [Compound 831, 3-(4,6-dimethylfuro[3,2-c]pyridin-2-yl)-7-(piperazin-1-yl)-2H-chromen-2-one], the EC (1.5-fold) in experiment [1] was 1 to 3 µM. In addition, the “maximum fold (Fold) increase” value in the experiment on Smn protein is “* (maximum fold increase of ≤1.2)”.

With `O=c1oc2cc(N3CCNCC3)ccc2cc1-c1nc2ncccc2o1` [Compound 110, 3-([1,3]oxazolo[4,5-b]pyridin-2-yl)-7-(piperazin-1-yl)-2H-chromen-2-one hydrochloride], the EC (1.5-fold) in experiment [1] was 3 to 30 µM. Moreover, the “maximum fold (Fold) increase” value in the experiment with Smn protein is “** (fold increase between >1.2 and ≤1.35)”.

`Cc1cn2cc(-c3cc4ccc(N5CCC(O)CC5)cc4oc3=O)nc2c(C)n1` [Compound 975, 3-(6,8-dimethylimidazo[1,2-a]pyrazin-2-yl)-7-(4-hydroxypiperidin-1-yl)-2H-chromen-2-one]: the EC (1.5-fold) in experiment [1] lay in the range of 0.3 to 1 µM. Also, the “maximum fold (Fold) increase” value in the experiment with Smn protein is “*** (fold increase between >1.35 and ≤1.5)”.

In the case of `Cc1cn2cc(-c3cc4ccc(N5CCN[C@@H](C)C5)cc4oc3=O)nc2cn1` [Compound 569, 3-(6-methylimidazo[1,2-a]pyrazin-2-yl)-7-[(3S)-3-methylpiperazin-1-yl]-2H-chromen-2-one], in experiment [1], the EC (1.5-fold) is < 0.1 µM. Moreover, in the experiment with Smn protein, the EC1.5x (concentration giving 1.5-fold Smn protein increase) was < 300 nM and the “maximum fold (Fold) increase” value is “***** (fold increase >1.65)”.

For the compound `Cc1cn2cc(-c3cc4ccc(C5CCNCC5)cc4oc3=O)ccc2n1` [Cpd 825, 3-(2-methylimidazo[1,2-a]pyridin-6-yl)-7-(piperidin-4-yl)-2H-chromen-2-one], the EC (1.5-fold) in experiment [1] was < 0.1 µM. Further, in the experiment with Smn protein, the EC1.5x (concentration giving 1.5-fold Smn protein increase) was < 300 nM and the “maximum fold (Fold) increase” value is recorded as “***** (fold increase >1.65)”.

With `Cc1nccn2cc(-c3cc4ccc(N5CCN[C@@H](C)C5)cc4oc3=O)nc12` [Compound 573, 3-(8-methylimidazo[1,2-a]pyrazin-2-yl)-7-[(3S)-3-methylpiperazin-1-yl]-2H-chromen-2-one], in experiment [1], the EC (1.5-fold) was in the range of 0.3 to 1 µM. For the same compound, in the experiment with Smn protein, the EC1.5x (concentration giving 1.5-fold Smn protein increase) is < 300 nM; the “maximum fold (Fold) increase” value was “**** (fold increase between >1.5 and ≤1.65)”.
